Experimental data taken from the NIST ThermoML archive (doi:10.1016/j.fluid.2012.03.025).

Assays:
[1] = xn = mol fraction of the nth substance listed; details: 298.15 K, 101 kPa, Liquid, Vibrating tube method
[2] = refractive index (Na D-line) (dimensionless); xn = mol fraction of the nth substance listed; details: 298.15 K, 101 kPa, Liquid, Standard Abbe refractometry
[3] = Crystal

CCCCCCC(C)O (stereo unspecified) [2-octanol] + CCCCCCCCCCCCN(CCCCCCCCCCCC)CCCCCCCCCCCC
x2 = 0
Details | mass density [kg/m3] | refractive index
[1] | 816.49 | –
[2] | – | 1.4244

CCCCCCC(C)O (stereo unspecified) [2-octanol] + CCCCCCCCCCO
Details | mass density, [1] [kg/m3] | refractive index, [2]
x1 = 0.0505 | 826.1 | 1.4349
x1 = 0.1001 | 825.65 | 1.4344
x1 = 0.1998 | 824.82 | 1.4334
x1 = 0.2999 | 824.02 | 1.4325
x1 = 0.4006 | 823.14 | 1.4315
x1 = 0.5001 | 822.18 | 1.4304
x1 = 0.6 | 821.17 | 1.4293
x1 = 0.6999 | 820.13 | 1.4281
x1 = 0.7995 | 819.04 | 1.427
x1 = 0.8998 | 817.86 | 1.4257
x1 = 0.95 | 817.21 | 1.4251
x1 = 1 | 816.49 | 1.4244

CCCCCCC(C)O (stereo unspecified) [2-octanol] + CCCCCCCCO
Details | mass density, [1] [kg/m3] | refractive index, [2]
x2 = 0 | 816.49 | 1.4243
x2 = 0.0403 | 816.8 | 1.4246
x2 = 0.0812 | 817.11 | 1.4247
x2 = 0.1657 | 817.65 | 1.425
x2 = 0.2539 | 818.13 | 1.4253
x2 = 0.3458 | 818.63 | 1.4255
x2 = 0.4421 | 819.16 | 1.4259
x2 = 0.5431 | 819.71 | 1.4262
x2 = 0.649 | 820.28 | 1.4265
x2 = 0.7603 | 820.85 | 1.4268
x2 = 0.8771 | 821.36 | 1.4272
x2 = 0.9375 | 821.61 | 1.4273

CCCCCCCCCCO [decan-1-ol] + CCCCCCC(C)O
x2 = 0
Details | mass density [kg/m3] | refractive index
[1] | 826.59 | –
[2] | – | 1.4354

CCCCCCCCCCO [decan-1-ol] + CCCCCCCCCCCCN(CCCCCCCCCCCC)CCCCCCCCCCCC
x2 = 0
Details | mass density [kg/m3] | refractive index
[1] | 826.59 | –
[2] | – | 1.4354

CCCCCCCCO [octan-1-ol] + CCCCCCC(C)O
x1 = 1
Details | mass density [kg/m3] | refractive index
[1] | 821.76 | –
[2] | – | 1.4275

CCCCCCCCO [octan-1-ol] + CCCCCCCCCCCCN(CCCCCCCCCCCC)CCCCCCCCCCCC
x2 = 0
Details | mass density [kg/m3] | refractive index
[1] | 821.76 | –
[2] | – | 1.4275

CCCCCCCCCCCCN(CCCCCCCCCCCC)CCCCCCCCCCCC [tridodecylamine]
Details | Normal melting temperature [°C]
[3] | 16.1

CCCCCCCCCCCCN(CCCCCCCCCCCC)CCCCCCCCCCCC [tridodecylamine] + CCCCCCC(C)O
Details | mass density, [1] [kg/m3] | refractive index, [2]
x1 = 0.0526 | 816.69 | 1.4296
x1 = 0.1042 | 816.97 | 1.4336
x1 = 0.2072 | 817.55 | 1.4396
x1 = 0.31 | 818.03 | 1.4436
x1 = 0.4111 | 818.41 | 1.4465
x1 = 0.5114 | 818.68 | 1.4486
x1 = 0.6109 | 818.88 | 1.4503
x1 = 0.7083 | 819.04 | 1.4516
x1 = 0.805 | 819.15 | 1.4528
x1 = 0.9037 | 819.22 | 1.4537
x1 = 0.9524 | 819.24 | 1.4541
x1 = 1 | 819.23 | 1.4546

CCCCCCCCCCCCN(CCCCCCCCCCCC)CCCCCCCCCCCC [tridodecylamine] + CCCCCCCCCCO
Details | mass density, [1] [kg/m3] | refractive index, [2]
x1 = 0.0522 | 825.92 | 1.4385
x1 = 0.104 | 825.24 | 1.4409
x1 = 0.2071 | 824.17 | 1.4448
x1 = 0.3096 | 823.37 | 1.447
x1 = 0.4117 | 822.57 | 1.4493
x1 = 0.5112 | 821.93 | 1.4506
x1 = 0.6117 | 821.35 | 1.4519
x1 = 0.7097 | 820.82 | 1.4528
x1 = 0.8078 | 820.35 | 1.4535
x1 = 0.9041 | 819.86 | 1.4541
x1 = 0.9534 | 819.53 | 1.4544
x1 = 1 | 819.23 | 1.4546

CCCCCCCCCCCCN(CCCCCCCCCCCC)CCCCCCCCCCCC [tridodecylamine] + CCCCCCCCO
Details | mass density, [1] [kg/m3] | refractive index, [2]
x1 = 0.0652 | 821.91 | 1.4337
x1 = 0.1282 | 821.75 | 1.438
x1 = 0.2477 | 821.37 | 1.4434
x1 = 0.3616 | 820.95 | 1.4468
x1 = 0.469 | 820.67 | 1.4491
x1 = 0.5695 | 820.41 | 1.4506
x1 = 0.6684 | 820.15 | 1.4519
x1 = 0.7531 | 819.94 | 1.4528
x1 = 0.8438 | 819.65 | 1.4535
x1 = 0.9238 | 819.4 | 1.4541
x1 = 0.9643 | 819.29 | 1.4544
x1 = 1 | 819.23 | 1.4546
